The subject of test [1] is PC12 cells. In words: Evaluation using PC12 cells; immunostaining method for MAPK phosphorylation. In kind it is cell-based. The conditions noted are these: 30 minutes. How it is done: PC12 cells were stimulated using the compound of the present invention and the phosphorylation of MAPK was evaluated by means of immunostaining of the cells. The specific operation procedure is as follows.
A cover glass was placed on a 24-well plate followed by coating with poly-L-lysine. PC12 cells were seeded in a cell density of 50,000 cells/well. (The amount of the medium was 400 μL) On the first day after seeding the cells, the medium was exchanged to DMEM containing 1% fetal bovine serum (FBS) and 0.06% L-glutamine.
The compound which was previously diluted with DMSO was dissolved in 100 μl of medium. After 12 to 16 hours from the medium exchange, 100 μl out of 400 μl of the medium was removed from each well and, in place of that, 100 μl of a medium containing the compound was added.
After 30 minutes from the addition, fixation was conducted using 4% paraformaldehyde (PFA) for 10 minutes. The fixed cells were washed with a Tris-buffered saline (TBS) and a TBS containing 0.3% Triton X was added thereto followed by incubating at 37° C. for 30 minutes. This was washed with a TBS and blocked with a TBS containing 3% skim milk for 30 minutes (at room temperature).
This was washed with a TBS for one time and a primary antibody (anti-phospho-p42/44 MAPK antibody; cell signalings; #9102 being diluted with TBS to an extent of 1,000-fold) was added thereto followed by subjecting to the reaction at 4° C. for one night. The primary antibody was removed and washed with a TBS for three times. After that, the secondary antibody (Alexa 488 goat anti-rabbit antibody; Invitrogen: being diluted to an extent of 1,000-fold using a TBS containing 1% Block Ace) was added thereto and the reaction was conducted at room temperature for 3 hours. The secondary antibody was removed and, after washing with a TBS, fixation was conducted with 4% PFA for 1 hour.
This was washed with a TBS, Hoechst (diluted with a TBS to an extent of 2000-fold) was added thereto and nuclear staining was conducted. This was washed and mounted.
Taking the photographic pictures and counting the positive cells were conducted as follows. An all-in-one microscope (manufactured by Keyence) was used, exposing time for pMAPK (green) was made 1/2.8 s, the place was appropriately decided in a Hoechst-stained image and the pictures were taken. Four pictures per one glass sheet were taken.
Photoshop (Adobe) was used and the cells having above a certain luminance were judged to be positive. All cells were labeled using Hoechst 33342 manufactured by Invitrogen and the rate of pMAPK-positive cells in Hoechst-positive cells was calculated. (cf. Table 7)

For test [2], the system named is paclitaxel-induced peripheral nerve disorder rats. In words: von Frey test in paclitaxel-induced peripheral nerve disorder rats. The format is in vivo. The conditions noted are these: Rattus norvegicus, ip; single intraperitoneal dose of 300 μ/kg; higher of the thresholds after 1 hour and 5 hours; normal threshold 15; read-out: Recovery rate of 50% reaction threshold value (%). As to the method:
The effect of the compound of the present invention was tested for a peripheral nerve disorder which is a side effect induced by the administration of paclitaxel (an anti-cancer agent) such as hyperesthesia including allodynia (severe pain induced by such tactile stimuli which usually cause no pain). The compound of the present invention was intraperitoneally administered to rats as a test drug to conduct a von Frey test.
Male SD rats of six weeks age (one group comprising six rats) were used as experimental animals and paclitaxel (2 mg/kg) was intraperitoneally administered every other day for four times in total to prepare paclitaxel-induced peripheral nerve disorder rats. During 18 and 25 days or during 20 to 27 days after initiation of paclitaxel administration, the test drug was intraperitoneally administered in a single dose of […] and the following von Frey test was conducted.
The rats of the above (1) were placed in a transparent acrylic cage with a wire-meshed floor and habituated for about three minutes and the 50% reaction threshold values to the mechanical stimulus of right hind limb were measured before administration of the test drug and after 1, 5 and 24 hours from initiation of the administration.
The measurement was conducted using von Frey filaments (manufactured by North Coast Medical Inc.) in accordance with the methods of Chaplan, et al. (Journal of Neuroscience Methods, vol. 53, no. 1, pages 55 to 63, 1994) and Dixon, et al. (Annual Review of Pharmacology and Toxicology, vol. 20, pages 441 to 462, 1980). […] The case where the rat escaped at the instance of removing the filament was also called positive. When the positive reaction was noted, stimulus was conducted similarly using a filament of one rank weaker while, when no reaction was noted, stimulus was conducted similarly using a filament of one rank stronger and the point when the reaction changed from negative to positive or from positive to negative was called the first two reactions. After that, stimulus was conducted for continuous four times by the same up-down method. A 50% reaction threshold value to the mechanical stimulus was measured using the reaction to the six stimuli in total and then (mean value)±(standard error) for each group was calculated. Incidentally, when stimulus reached by that of 15.0 g without positive reaction or, when positive reaction continued to 0.4 g, then 15.0 g or 0.25 g was adopted as each threshold value, respectively. With regard to the higher 50% reaction threshold value between the 50% threshold values after 1 hour and 5 hours from administration of a test drug, a recovery rate (%) of the 50% reaction threshold value was calculated by the following expression in which 15 was adopted as the normal threshold value. Recovery rate (%) of 50% reaction threshold value=[(50% reaction threshold value after 1 hour or 5 hours from administration of test drug)−(50% reaction threshold value before administration of test drug)]/[(Normal threshold value)−(50% reaction threshold value before administration of test drug)]

For the molecule `CCCCCCC/C=C/C(=O)OC(C)CN(C)C` (stereo not shown) [Compound 3, (E)-1-(dimethylamino)propan-2-yl dec-2-enoate], the “Rate of pMAPK-positive cells (%)” value in test [1] (62.5 μg/mL) is 0%; in test [1] (125 μg/mL) it was 12%; in test [1] (250 μg/mL) it was 14%; in test [1] (500 μg/mL) it was 14%. As for `CCCCCCC/C=C/C(=O)OCC(C)(C)CN(C)C` [Compound 5, (E)-3-(dimethylamino)-2,2-dimethylpropyl dec-2-enoate], the “Rate of pMAPK-positive cells (%)” value in test [1] (62.5 μg/mL) was determined as 1%; in test [1] (125 μg/mL), 23%; in test [1] (250 μg/mL), 0%; in test [1] (500 μg/mL), 24%. For `CCCCCCC/C=C/C(=O)OCCSC(C)C` [Compound 8, (E)-2-(isopropylthio)ethyl dec-2-enoate], in test [2], the inhibition in vivo at 0.3 mg/kg is 32.2%.

Take `CCCCCCC/C=C/C(=O)OCCOC` [Compound 9, (E)-2-methoxyethyl dec-2-enoate]: the inhibition in vivo at 0.3 mg/kg in test [2] was found to be 51.4%. On the same count and under the same terms, as for `CCCCCCC/C=C/C(=O)OCCOCC` [Compound 10, (E)-2-ethoxyethyl dec-2-enoate], the figure is 26.4%; as for `CCCCCCC/C=C/C(=O)OC(COCC)COCC` [Compound 11, (E)-1,3-diethoxy-2-propyl dec-2-enoate], 37.6%. In the case of `CCCCCCC/C=C/C(=O)OCCOCCN(C)C` [Compound 12, (E)-2-(2-(dimethylamino)ethoxy)ethyl dec-2-enoate], the “Rate of pMAPK-positive cells (%)” value stood at 11% in test [1] (62.5 μg/mL), 17% in test [1] (125 μg/mL), 9% in test [1] (250 μg/mL) and 29% in test [1] (500 μg/mL). `CCCCCCC/C=C/C(=O)NC` [Compound 15, (E)-N-methyl dec-2-enamide]: the inhibition in vivo at 0.3 mg/kg in test [2] amounted to 37.7%. Take `CCCCCCC/C=C/C(=O)NCC` [Compound 16, (E)-N-ethyl dec-2-enamide]: the inhibition in vivo at 0.3 mg/kg in test [2] turned out to be 59.7%.

For the molecule `CCCCCCC/C=C/C(=O)NCCCC` [Compound 17, (E)-N-butyl dec-2-enamide], in test [2], the inhibition in vivo at 0.3 mg/kg was determined as 52.6%. The same measure, in the same setting: as for `CCCCCCC/C=C/C(=O)NCC(C)C` [Compound 18, (E)-N-isobutyl dec-2-enamide], the figure is 54.6%; as for `CCCCCCC/C=C/C(=O)NCCCCC` [Compound 19, (E)-N-pentyl dec-2-enamide], 73.7%. The same measure, in the same setting: the value for `CCCCCCC/C=C/C(=O)NCCC(C)C` [Compound 20, (E)-N-isopentyl dec-2-enamide] was 42.5%; that for `CCCCCCC/C=C/C(=O)NC(C)(C)CC` [Compound 21, (E)-N-tert-pentyl dec-2-enamide] was 63.2%. Regarding `CCCCCCC/C=C/C(=O)NCCCCCC` [Compound 22, (E)-N-hexyl dec-2-enamide], in test [2], the inhibition in vivo at 0.3 mg/kg was determined as 64.6%. Regarding `CCCCCCC/C=C/C(=O)NCCCCCCC` [Compound 23, (E)-N-heptyl dec-2-enamide], in test [2], the inhibition in vivo at 0.3 mg/kg amounted to 28.6%. For the molecule `CCCCCCC/C=C/C(=O)NC(CCC)CCC` [Compound 24, (E)-N-(heptan-4-yl) dec-2-enamide], in test [2], the inhibition in vivo at 0.3 mg/kg came out at 56.1%. As to `CCCCCCC/C=C/C(=O)NC(CC)CCCCC` (stereo not shown) [Compound 25, (E)-N-(octan-3-yl) dec-2-enamide], the inhibition in vivo at 0.3 mg/kg in test [2] is 33.7%. Same read-out and setting: as for `CCCCCCC/C=C/C(=O)NC(C)(C)CC(C)(C)C` [Compound 26, (E)-N-(2,4,4-trimethylpentan-2-yl) dec-2-enamide], the figure is 55.7%. Same read-out and setting: the value for `CCCCCCC/C=C/C(=O)NC1CCCCC1` [Compound 27, (E)-N-cyclohexyl dec-2-enamide] was 46.4%. On to `CCCCCCC/C=C/C(=O)Nc1ccccc1` [Compound 28, (E)-N-phenyl dec-2-enamide], for which the inhibition in vivo at 0.3 mg/kg in test [2] came to 19.4%. On the same count and under the same terms, the value for `CCCCCCC/C=C/C(=O)NCCc1ccccc1` [Compound 29, (E)-N-phenethyl dec-2-enamide] was 46.3%; that for `CCCCCCC/C=C/C(=O)N(CCCC)CCCC` [Compound 32, (E)-N,N-dibutyl dec-2-enamide] was 70.6%.

In the case of `CCCCCCC/C=C/C(=O)N(CCCCC)CCCCC` [Compound 33, (E)-N,N-dipentyl dec-2-enamide], the inhibition in vivo at 0.3 mg/kg in test [2] was 45.3%. As to `CCCCCCC/C=C/C(=O)N(CCCCCC)CCCCCC` [Compound 34, (E)-N,N-dihexyl dec-2-enamide], the inhibition in vivo at 0.3 mg/kg in test [2] was 48.3%. In the case of `CCCCCCC/C=C/C(=O)N(CC)CCCCCCC` [Compound 35, (E)-N-ethyl-N-heptyl dec-2-enamide], the inhibition in vivo at 0.3 mg/kg in test [2] was 47.1%. In the case of `CCCCCCC/C=C/C(=O)NCCCN(C)C` [Compound 38, (E)-N-3-(dimethylamino)propyl dec-2-enamide], the inhibition in vivo at 0.3 mg/kg in test [2] is 52.1%. On the same count and under the same terms, as for `CCCCCCC/C=C/C(=O)NCCCN(CC)CC` [Compound 39, (E)-N-3-(diethylamino)propyl dec-2-enamide], the figure is 49.7%. Turning to `CCCCCCC/C=C/C(=O)NCCN(C(C)C)C(C)C` [Compound 40, (E)-N-2-(diisopropylamino)ethyl dec-2-enamide], in test [2], the inhibition in vivo at 0.3 mg/kg was found to be 71.5%. As for `CCCCCCC/C=C/C(=O)NCCN(CCCC)CCCC` [Compound 41, (E)-N-2-(dibutylamino)ethyl dec-2-enamide], the inhibition in vivo at 0.3 mg/kg in test [2] turned out to be 28.3%. As to `CCCCCCC/C=C/C(=O)SCCCCC` [Compound 48, (E)-S-pentyl dec-2-enethioate], the inhibition in vivo at 0.3 mg/kg in test [2] is 50.7%.

Take `CCCCCCC/C=C/C(=O)SCCC(C)C` [Compound 49, (E)-S-isopentyl dec-2-enethioate]: the inhibition in vivo at 0.3 mg/kg in test [2] is 69.3%. Same read-out and setting: as for `CCCCCCC/C=C/C(=O)SCCCCCC` [Compound 50, (E)-S-hexyl dec-2-enethioate], the figure is 51.7%. The same measure, in the same setting: as for `CCCCCCC/C=C/C(=O)SCCCCCCC` [Compound 51, (E)-S-heptyl dec-2-enethioate], the figure is 45.7%; as for `CCCCCCC/C=C/C(=O)SCCCCCCCCCC` [Compound 52, (E)-S-decyl dec-2-enethioate], 18.7%. On the same count and under the same terms, the value for `CCCCCCC/C=C/C(=O)SC1CCCC1` [Compound 53, (E)-S-cyclopentyl dec-2-enethioate] was 34.9%. For `CCCCCCC/C=C/C(=O)SCCc1ccccc1` [Compound 54, (E)-S-phenethyl dec-2-enethioate], in test [2], the inhibition in vivo at 0.3 mg/kg is 51.9%.

Source of the values: US8987486B2, “Trans-2-decenoic acid derivative and pharmaceutical agent containing the same” (Nagoya Industrial Science Research Institute, priority 2010, dated 2015).
